Measured values taken from patent publication US20020137929A1, “1 - (3-heterocyclylphenyl) isothiourea, -isourea, -guanidine and -amidine herbicidal agents” (Intellectual Property Department, BASF Aktiengesellschaft, priority 1998, published 2002).

Tests used:
[1] = test system: AMBEL (Ragweed, Common); assay: Postemergence herbicidal evaluation; type: in vivo, Ambrosia artemisifolia; conditions: postemergence
How it was run: (§1)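 First, seedlings were raised for around two weeks. Next, test material in 50/50 acetone/water containing 0.5% TWEEN 20 was sprayed through a nozzle at 40 psi, equivalent to about 0.0156–0.500 kg/ha. Finally, after 4–5 weeks in the greenhouse, plants were rated 0–9.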

[2] = test system: CASOB (Sicklepod); assay: Postemergence herbicidal evaluation; type: in vivo, Cassia obtusifolia; conditions: postemergence
How it was run: as §1

[3] = test system: GALAP (Galium); assay: Postemergence herbicidal evaluation; type: in vivo, Galium aparine; conditions: postemergence
How it was run: as §1

[4] = test system: IPOHE (Morningglory, Ivyleaf); assay: Postemergence herbicidal evaluation; type: in vivo, Ipomoea hederacea; conditions: postemergence
How it was run: as §1

[5] = test system: ABUTH (Velvetleaf); assay: Preemergence herbicidal evaluation; type: in vivo, Abutilon theophrasti; conditions: preemergence, rated 4-5 weeks after treatment, 0-9 scale
How it was run: (§2)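 Seeds were mixed with potting soil and planted on about one inch of soil, then sprayed with test compound in aqueous acetone at about 0.0156 to 0.500 kg per hectare. Plants grew under standard greenhouse care and were visually rated 0-9 against untreated controls 4-5 weeks post-treatment.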

[6] = test system: CASOB (Sicklepod); assay: Preemergence herbicidal evaluation; type: in vivo, Cassia obtusifolia; conditions: preemergence, rated 4-5 weeks after treatment, 0-9 scale
How it was run: as §2

[7] = test system: IPOHE (Morningglory, Ivyleaf); assay: Preemergence herbicidal evaluation; type: in vivo, Ipomoea hederacea; conditions: preemergence, rated 4-5 weeks after treatment, 0-9 scale
How it was run: as §2

[8] = test system: ECHCG (Barnyardgrass); assay: Preemergence herbicidal evaluation; type: in vivo, Echinochloa crus-galli; conditions: preemergence, rated 4-5 weeks after treatment, 0-9 scale
How it was run: as §2

[9] = test system: GLXMAW (Soybean, Williams); assay: Preemergence herbicidal evaluation; type: in vivo, Glycine max, (L.) Merr. cv Williams; conditions: preemergence, rated 4-5 weeks after treatment, 0-9 scale
How it was run: as §2

[10] = test system: TRZAWR (Wheat, Winter, cv Riband); assay: Preemergence herbicidal evaluation; type: in vivo, Triticum aestivum; conditions: preemergence, rated 4-5 weeks after treatment, 0-9 scale
How it was run: as §2

[11] = test system: ZEAMX (Corn, Field); assay: Preemergence herbicidal evaluation; type: in vivo, Zea mays; conditions: preemergence, rated 4-5 weeks after treatment, 0-9 scale
How it was run: as §2

[12] = test system: MOOVA (Monochoria); assay: Preemergence weed control under flooded paddy conditions; type: in vivo, Monochoria vaginalis; conditions: rated 3-4 weeks after treatment
How it was run: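 Seeds or propagules sown in top 0.5 cm of silt loam soil, flooded 1.5 to 3 cm above surface throughout. Compound in 50/50 v/v aqueous/acetone pipetted into flood water at about 0.0313 to 0.500 kg/ha. Visual 0-9 rating versus control after three to four weeks in greenhouse.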

[13] = test system: CYPIR (Rice Flatsedge); assay: Postemergence weed control under flooded paddy conditions; type: in vivo, Cyperus iria; conditions: postemergence weeds, rated 3 to 4 weeks after treatment
How it was run: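 Weeds 3 to 5 cm tall and rice seedlings at the 1.5 to 2.5 leaf stage were flooded, with water held 1.5 to 3 cm above the soil. Compounds in 50/50 v/v aqueous/acetone went into the flood water at about 0.0313 to 0.500 kg/ha. Visual 0-9 ratings versus control were made 3 to 4 weeks later.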

C=CCN1C(=O)C(CC(=O)NS(C)(=O)=O)SC1=Nc1cc(-n2c(=O)cc(C(F)(F)F)n(C)c2=O)c(F)cc1Cl (centres unmarked) [Compound 96, 3-Allyl-2-{{2-chloro-5-[3,6-dihydro-3-methyl-2,6-dioxo-4-(trifluoromethyl)-1(2H)-pryimidinyl]-4-fluorophenyl}imino}-N-(methylsulfonyl)-4-oxo-5-thiazolidineacetamide]
AMBEL herbicidal rating ([1]; rate 0.0156 kg/ha): 3.0
AMBEL herbicidal rating ([1]; rate 0.0313 kg/ha): 4.0
AMBEL herbicidal rating ([1]; rate 0.0625 kg/ha): 7.0
AMBEL herbicidal rating ([1]; rate 0.1250 kg/ha): 7.0
CASOB herbicidal rating ([2]; rate 0.0156 kg/ha): 0.0
CASOB herbicidal rating ([2]; rate 0.0313 kg/ha): 0.0
CASOB herbicidal rating ([2]; rate 0.0625 kg/ha): 1.0
CASOB herbicidal rating ([2]; rate 0.1250 kg/ha): 0.0
GALAP herbicidal rating ([3]; rate 0.0156 kg/ha): 0.0
GALAP herbicidal rating ([3]; rate 0.0313 kg/ha): 0.0
GALAP herbicidal rating ([3]; rate 0.0625 kg/ha): 1.0
GALAP herbicidal rating ([3]; rate 0.1250 kg/ha): 0.0
IPOHE herbicidal rating ([4]; rate 0.0156 kg/ha): 6.0
IPOHE herbicidal rating ([4]; rate 0.0313 kg/ha): 9.0
IPOHE herbicidal rating ([4]; rate 0.0625 kg/ha): 9.0
IPOHE herbicidal rating ([4]; rate 0.1250 kg/ha): 9.0
ABUTH rating ([5]; 0.0313 kg/ha): 1.0
ABUTH rating ([5]; 0.0625 kg/ha): 9.0
ABUTH rating ([5]; 0.1250 kg/ha): 9.0
ABUTH rating ([5]; 0.2500 kg/ha): 9.0
ABUTH rating ([5]; 0.5000 kg/ha): 9.0
CASOB rating ([6]; 0.0313 kg/ha): 0.0
CASOB rating ([6]; 0.0625 kg/ha): 0.0
CASOB rating ([6]; 0.1250 kg/ha): 0.0
CASOB rating ([6]; 0.2500 kg/ha): 4.0
CASOB rating ([6]; 0.5000 kg/ha): 9.0
IPOHE rating ([7]; 0.0313 kg/ha): 0.0
IPOHE rating ([7]; 0.0625 kg/ha): 0.0
IPOHE rating ([7]; 0.1250 kg/ha): 1.0
IPOHE rating ([7]; 0.2500 kg/ha): 9.0
IPOHE rating ([7]; 0.5000 kg/ha): 9.0
ECHCG rating ([8]; 0.0313 kg/ha): 0.0
ECHCG rating ([8]; 0.0625 kg/ha): 0.0
ECHCG rating ([8]; 0.1250 kg/ha): 0.0
ECHCG rating ([8]; 0.2500 kg/ha): 1.0
ECHCG rating ([8]; 0.5000 kg/ha): 1.0
GLXMAW rating ([9]; 0.0313 kg/ha): 0.0
GLXMAW rating ([9]; 0.0625 kg/ha): 0.0
GLXMAW rating ([9]; 0.1250 kg/ha): 0.0
GLXMAW rating ([9]; 0.2500 kg/ha): 3.0
GLXMAW rating ([9]; 0.5000 kg/ha): 4.0
TRZAWR rating ([10]; 0.0313 kg/ha): 0.0
TRZAWR rating ([10]; 0.0625 kg/ha): 0.0
TRZAWR rating ([10]; 0.1250 kg/ha): 0.0
TRZAWR rating ([10]; 0.2500 kg/ha): 1.0
TRZAWR rating ([10]; 0.5000 kg/ha): 1.0
ZEAMX rating ([11]; 0.0313 kg/ha): 0.0
ZEAMX rating ([11]; 0.0625 kg/ha): 1.0
ZEAMX rating ([11]; 0.1250 kg/ha): 0.0
ZEAMX rating ([11]; 0.2500 kg/ha): 2.0
ZEAMX rating ([11]; 0.5000 kg/ha): 4.0
MOOVA herbicidal effect rating ([12]; 0.0313 kg/ha): 2.0
MOOVA herbicidal effect rating ([12]; 0.0625 kg/ha): 2.0
MOOVA herbicidal effect rating ([12]; 0.1250 kg/ha): 3.0
MOOVA herbicidal effect rating ([12]; 0.2500 kg/ha): 3.0
Herbicidal rating CYPIR ([13]; Rate 0.0313 kg/ha): 0.0
Herbicidal rating CYPIR ([13]; Rate 0.0625 kg/ha): 5.0
Herbicidal rating CYPIR ([13]; Rate 0.1250 kg/ha): 6.0
Herbicidal rating CYPIR ([13]; Rate 0.2500 kg/ha): 6.0

CCOC(=O)CN1C(=O)C(CC(=O)NO)S/C1=N/c1cc(-n2c(=O)cc(C(F)(F)F)n(C)c2=O)c(F)cc1Cl (centres unmarked) [Compound 98, Ethyl 2-{{2-chloro-5-[3,6-dihydro-3-methyl-2,6-dioxo-4-(trifluoromethyl)-1(2H)-pyrimidinyl]-4-fluorophenyl}imino}-5-[(hydroxycarbamoyl)methyl]-4-oxo-3-thiazolidineacetate]
AMBEL herbicidal rating ([1]; rate 0.0156 kg/ha): 3.0
AMBEL herbicidal rating ([1]; rate 0.0313 kg/ha): 3.0
AMBEL herbicidal rating ([1]; rate 0.0625 kg/ha): 4.0
AMBEL herbicidal rating ([1]; rate 0.1250 kg/ha): 9.0
CASOB herbicidal rating ([2]; rate 0.0156 kg/ha): 0.0
CASOB herbicidal rating ([2]; rate 0.0313 kg/ha): 0.0
CASOB herbicidal rating ([2]; rate 0.0625 kg/ha): 0.0
CASOB herbicidal rating ([2]; rate 0.1250 kg/ha): 1.0
GALAP herbicidal rating ([3]; rate 0.0156 kg/ha): 0.0
GALAP herbicidal rating ([3]; rate 0.0313 kg/ha): 0.0
GALAP herbicidal rating ([3]; rate 0.0625 kg/ha): 0.0
GALAP herbicidal rating ([3]; rate 0.1250 kg/ha): 1.0
IPOHE herbicidal rating ([4]; rate 0.0156 kg/ha): 3.0
IPOHE herbicidal rating ([4]; rate 0.0313 kg/ha): 3.0
IPOHE herbicidal rating ([4]; rate 0.0625 kg/ha): 9.0
IPOHE herbicidal rating ([4]; rate 0.1250 kg/ha): 9.0
ABUTH rating ([5]; 0.0156 kg/ha): 0.0
ABUTH rating ([5]; 0.0313 kg/ha): 0.0
ABUTH rating ([5]; 0.0625 kg/ha): 2.0
ABUTH rating ([5]; 0.1250 kg/ha): 6.0
ABUTH rating ([5]; 0.2500 kg/ha): 6.0
ABUTH rating ([5]; 0.5000 kg/ha): 9.0
CASOB rating ([6]; 0.0156 kg/ha): 0.0
CASOB rating ([6]; 0.0313 kg/ha): 0.0
CASOB rating ([6]; 0.0625 kg/ha): 0.0
CASOB rating ([6]; 0.1250 kg/ha): 1.0
CASOB rating ([6]; 0.2500 kg/ha): 2.0
CASOB rating ([6]; 0.5000 kg/ha): 7.0
IPOHE rating ([7]; 0.0156 kg/ha): 0.0
IPOHE rating ([7]; 0.0313 kg/ha): 0.0
IPOHE rating ([7]; 0.0625 kg/ha): 1.0
IPOHE rating ([7]; 0.1250 kg/ha): 3.0
IPOHE rating ([7]; 0.2500 kg/ha): 4.0
IPOHE rating ([7]; 0.5000 kg/ha): 9.0
ECHCG rating ([8]; 0.0156 kg/ha): 0.0
ECHCG rating ([8]; 0.0313 kg/ha): 0.0
ECHCG rating ([8]; 0.0625 kg/ha): 0.0
ECHCG rating ([8]; 0.1250 kg/ha): 1.0
ECHCG rating ([8]; 0.2500 kg/ha): 1.0
ECHCG rating ([8]; 0.5000 kg/ha): 2.0
GLXMAW rating ([9]; 0.0156 kg/ha): 0.0
GLXMAW rating ([9]; 0.0313 kg/ha): 0.0
GLXMAW rating ([9]; 0.0625 kg/ha): 1.0
GLXMAW rating ([9]; 0.1250 kg/ha): 1.0
GLXMAW rating ([9]; 0.2500 kg/ha): 4.0
GLXMAW rating ([9]; 0.5000 kg/ha): 5.0
TRZAWR rating ([10]; 0.0156 kg/ha): 0.0
TRZAWR rating ([10]; 0.0313 kg/ha): 0.0
TRZAWR rating ([10]; 0.0625 kg/ha): 0.0
TRZAWR rating ([10]; 0.1250 kg/ha): 0.0
TRZAWR rating ([10]; 0.2500 kg/ha): 1.0
TRZAWR rating ([10]; 0.5000 kg/ha): 3.0
ZEAMX rating ([11]; 0.0156 kg/ha): 0.0
ZEAMX rating ([11]; 0.0313 kg/ha): 0.0
ZEAMX rating ([11]; 0.0625 kg/ha): 0.0
ZEAMX rating ([11]; 0.1250 kg/ha): 0.0
ZEAMX rating ([11]; 0.2500 kg/ha): 4.0
ZEAMX rating ([11]; 0.5000 kg/ha): 6.0
MOOVA herbicidal effect rating ([12]; 0.0313 kg/ha): 9.0
MOOVA herbicidal effect rating ([12]; 0.0625 kg/ha): 9.0
MOOVA herbicidal effect rating ([12]; 0.1250 kg/ha): 9.0
MOOVA herbicidal effect rating ([12]; 0.2500 kg/ha): 9.0
Herbicidal rating CYPIR ([13]; Rate 0.0313 kg/ha): 9.0
Herbicidal rating CYPIR ([13]; Rate 0.0625 kg/ha): 9.0
Herbicidal rating CYPIR ([13]; Rate 0.1250 kg/ha): 9.0
Herbicidal rating CYPIR ([13]; Rate 0.2500 kg/ha): 9.0
